Experimental findings from patent US20100184809A1, “Heterocyclic FXR Binding Compounds” (PHENEX PHARMACEUTICALS AG, priority 2006, published 2010) are described below.

Each structure is given as a SMILES string.

Data set [1] is described as follows: Aqueous solubility assay, Protocol A, nephelometry method. It is filed as physicochemical. Particulars: PBS with 5% DMSO, aqueous with cosolvent or surfactant or cyclodextrin, kinetic from dmso stock, PBS pH 7.4, 5% DMSO, 23° C., 24 hours, read-out: Aqueous solubility pH 7.4. An outline of the steps: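 PBS pH 7.4 with 5% DMSO at 23° C; compounds diluted from 10 mM DMSO stock to final 100, 70, 50, 35, 25, 17, 12 and <10 μg/ml. Equilibrated 24 h at room temperature, then solubility read by nephelometric light scattering; acetylsalicylic acid served as validation compound.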

Data set [2] deals with T1, human FXRalpha ligand binding domain (LBD) (Homo sapiens, UniProt Q96RI1).
T1 construct: made in house; host or cells: E. coli BL21(DE3), vector pDEST15
T1 sequence (Q96RI1 187-472 isoform Q96RI1-2): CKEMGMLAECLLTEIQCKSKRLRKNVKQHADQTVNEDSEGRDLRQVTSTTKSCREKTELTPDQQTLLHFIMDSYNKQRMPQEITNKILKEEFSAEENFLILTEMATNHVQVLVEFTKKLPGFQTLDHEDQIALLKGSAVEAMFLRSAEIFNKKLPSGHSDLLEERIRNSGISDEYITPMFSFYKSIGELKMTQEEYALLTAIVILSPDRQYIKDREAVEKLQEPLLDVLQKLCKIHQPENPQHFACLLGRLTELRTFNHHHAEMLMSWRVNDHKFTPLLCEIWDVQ
Kind of data set: FRET activity assay (ligand mediated cofactor peptide interaction, LANCE). In kind it is biochemical. The note with it: GST-FXR-LBD / biotinylated SRC-1 peptide (676-700). In a few lines:
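GST-tagged human FXRα LBD (aa 187-472) from E. coli, with biotinylated SRC-1 peptide 676-700 (200-600 nM), Eu anti-GST and streptavidin-APC in Tris pH 7.5 buffer, 1% DMSO. One hour at room temperature in the dark, then time-resolved FRET read as the 665/615 nm ratio.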
(In general: In TR-FRET formats the signal depends on donor and acceptor labels being close together.)

As to `Cc1nc(OCc2c(-c3c(Cl)cccc3Cl)noc2C(C)C)ccc1N(C)S(=O)(=O)c1ccc(C(=O)O)cc1` [Example 4, 4-(N-(6-((3-(2,6-dichlorophenyl)-5-isopropylisoxazol-4-yl)methoxy)-2-methylpyridin-3-yl)—N-methylsulfamoyl)benzoic acid], the solubility at 24 h in data set [1] was > 100 µM. In addition, the IC50 in data set [2] is ≤ 1000 nM. Turning to `CC(C)c1onc(-c2c(Cl)cccc2Cl)c1COc1ccc(/C=C/c2cccc(C(=O)O)c2)c(Cl)c1` [Compound B, reference compound], in data set [1], the solubility at 24 h is < 2 µM. Regarding `CC(C)c1onc(-c2c(Cl)cccc2Cl)c1COc1ccc(N(C)Cc2ccc(C(=O)O)cc2)c(C(F)(F)F)n1` [Example 28, 4(((6-((3-(2,6-Dichlorophenyl)-5-isopropylisoxazol-4-yl)methoxy)-2-(trifluoromethyl)pyridin-3-yl)(methyl)amino)methyl)benzoic acid], in data set [2], the IC50 is ≤ 1000 nM.

Turning to `CC(C)c1onc(-c2c(Cl)cccc2Cl)c1COc1ccc(N(C)C(=O)c2ccc(C(=O)O)cc2)c(C(F)(F)F)n1` [Example 7, N-{6-[3-(2,6-dichloro-phenyl)-5-isopropyl-isoxazol-4-ylmethoxy]-2-trifluoromethyl-pyridin-3-yl}-N-methyl-terephthalamic acid], in data set [1], the solubility at 24 h is > 100 µM. Further, in data set [2], the IC50 was ≤ 1000 nM.

A word on the solubility: it is how much of the substance goes into solution per volume. In general, IC50 refers to the concentration at which inhibition is half-maximal.
